Measured values as given in US10533010B2, “Substituted indole Mcl-1 inhibitors” (Vanderbilt University, priority 2014, dated 2020).

What follows are compounds tested against recombinant Mcl-1 (residues 172-327) (Homo sapiens (Human), UniProt Q07820) (assay: Fluorescence polarization anisotropy competition assay (FITC-Bak or FITC-Bim BH3 peptide) with Mcl-1). Details: Table 2; Ki bins given in nM; FITC-Bak or FITC-Bim peptide competition; Ki converted from IC50; read-out: Ki for Inhibition of Mcl-1.
recombinant Mcl-1 (residues 172-327), sequence (Q07820 172-327): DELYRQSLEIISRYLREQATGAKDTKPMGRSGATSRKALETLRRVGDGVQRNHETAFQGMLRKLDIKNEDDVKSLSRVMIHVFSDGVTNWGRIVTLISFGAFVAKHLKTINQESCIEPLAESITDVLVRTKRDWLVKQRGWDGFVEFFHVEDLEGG
Type: binding

| SMILES | Ki [nM] |
| --- | --- |
| Cc1cc(N2CCCn3c(c(CCCOc4cc(C)c(Cl)c(C)c4)c4ccc(Cl)c(-c5c(C)nn(C)c5C)c43)C2=O)ccc1C(=O)O [I-99, 4-(8-chloro-11-(3-(4-chloro-3,5-dimethylphenoxy)propyl)-1-oxo-7-(1,3,5-trimethyl-1H-pyrazol-4-yl)-4,5-dihydro-1H-[1,4]diazepino[1,2-a]indol-2(3H)-yl)-2-methylbenzoic acid] | < 50 |
| Cc1cc(OCCCc2c3n(c4c(-c5c(C)nn(C)c5C)cccc24)CCCN(Cc2ccc(N4CCCC4)c(C(=O)O)c2)C3=O)cc(C)c1Cl [I-78, 5-((11-(3-(4-chloro-3,5-dimethylphenoxy)propyl)-1-oxo-7-(1,3,5-trimethyl-1H-pyrazol-4-yl)-4,5-dihydro-1H-[1,4]diazepino[1,2-a]indol-2(3H)-yl)methyl)-2-(pyrrolidin-1-yl)benzoic acid] | 101 to 299 |
| Cc1cc(OCCCc2c(C(=O)NCCC(=O)NS(=O)(=O)c3ccccc3)[nH]c3ccccc23)cc(C)c1Cl [I-14, 3-(3-(4-chloro-3,5-dimethylphenoxy)propyl)-N-(3-oxo-3-(phenylsulfonamido)propyl)-1H-indole-2-carboxamide] | 51 to 100 |
| Cc1cc(OCCCc2c3n(c4c(-c5c(C)nn(C)c5C)c(Cl)ccc24)CCCN(c2cc(C(=O)O)c4ccn(Cc5cccnc5)c4c2)C3=O)cc(C)c1Cl [I-241, 6-(8-chloro-11-(3-(4-chloro-3,5-dimethylphenoxy)propyl)-1-oxo-7-(1,3,5-trimethyl-1H-pyrazol-4-yl)-4,5-dihydro-1H-[1,4]diazepino[1,2-a]indol-2(3H)-yl)-1-(pyridin-3-ylmethyl)-1H-indole-4-carboxylic acid] | < 50 |
| Cc1cc(OCCCc2c3n(c4c(-c5c(C)nn(C)c5C)c(Cl)ccc24)CCCN(c2cccc(C#N)c2)C3=O)cc(C)c1Cl [I-353, 3-(8-chloro-11-(3-(4-chloro-3,5-dimethylphenoxy)propyl)-1-oxo-7-(1,3,5-trimethyl-1H-pyrazol-4-yl)-4,5-dihydro-1H-[1,4]diazepino[1,2-a]indol-2(3H)-yl)benzonitrile] | 51 to 100 |
| Cc1cc(OCCCc2c(C(=O)NCC(=O)NS(=O)(=O)c3ccc(Oc4ccccc4)cc3)[nH]c3ccccc23)cc(C)c1Cl [I-8, 3-(3-(4-chloro-3,5-dimethylphenoxy)propyl)-N-(2-oxo-2-((4-phenoxyphenyl)sulfonamido)ethyl)-1H-indole-2-carboxamide] | 101 to 299 |
| Cc1cc(OCCCc2c3n(c4c(-c5c(C)nn(C)c5C)c(Cl)ccc24)CC(C)CN(Cc2ccc(C(=O)O)o2)C3=O)cc(C)c1Cl (stereo not drawn) [I-132, 5-((8-chloro-1-(3-(4-chloro-3,5-dimethylphenoxy)propyl)-4-methyl-1-oxo-7-(1,3,5-trimethyl-1H-pyrazol-4-yl)-4,5-dihydro-1H-[1,4]diazepino[1,2-a]indol-2(3H)-yl)methyl)furan-2-carboxylic acid] | < 50 |
| Cc1cc(OCCCc2c3n(c4c(-c5c(C)nn(C)c5C)c(Cl)ccc24)CCN(c2cc(C(=O)O)c4ccn(C)c4c2)C3=O)cc(C)c1Cl [I-162, 6-(7-chloro-10-(3-(4-chloro-3,5-dimethylphenoxy)propyl)-1-oxo-6-(1,3,5-trimethyl-1H-pyrazol-4-yl)-3,4-dihydropyrazino[1,2-a]indol-2(1H)-yl)-1-methyl-1H-indole-4-carboxylic acid] | < 50 |
| Cc1cc(OCCCc2c3n(c4c(-c5c(C)nn(C)c5C)c(Cl)ccc24)CCCN(Cc2cc(C(=O)O)cc(Cl)n2)C3=O)cc(C)c1Cl [I-349, 2-chloro-6-((8-chloro-1-(3-(4-chloro-3,5-dimethylphenoxy)propyl)-1-oxo-7-(1,3,5-trimethyl-1H-pyrazol-4-yl)-4,5-dihydro-1H-[1,4]diazepino[1,2-a]indol-2(3H)-yl)methyl)isonicotinic acid] | < 50 |
